The values that follow come from patent publication US20090054338A1, “Synergisms between repartitioning and immunomodulating compounds” (priority 2007, published 2009).

For one data set, the system named is barnacle naupii. The settings on record: cited from earlier work.
Data set [1] concerns adrenergic beta-2 receptors. The data set is described as follows: Down-regulation of adrenergic beta-2 receptors, receptor binding on adipocytes. The data set is classed as in vivo. The conditions noted are these: rats. The source says: The populations of adrenergic beta-2 receptors on cells (adipocytes) from rats are studied.
Another data set has as its system mice. The data set is described as follows: Stress-induced mortality (modified physostigmine-induced lethality test). The data set is classed as in vivo. The text has this:
A modification of the physostigmine-induced lethality test that successfully was used for testing of sedation by Schering in the loratadine project (Villani F. J., et al., U.S. Pat. No. 4,659,716, 1987) and by Sepracor in the desloratadine project (Aberg, G. et al. U.S. Pat. No. 5,595,997) was used. In short, mice that previously had not been housed together, suffer from severe stress when placed together (n=10) in a new environment, such as a small cage with which they are not familiar. […] Similarly, increased stress by ractopamine in livestock animals has been reported by Marchant-Forde et al., 2003. […] The number of surviving mice was counted 30 minutes after the animals had been placed in the test-cage, which was 60 min after the administration of ractopamine.

For another data set, the system named is newborn calves. The data set is described as follows: In vivo study in newborn calves (survival to weaning). More on the design: species or system cattle. The method, then: The present study was performed at a farm with a high rate of mortality of newborn calves from Cryptosporidiosis and upper respiratory infections.
Two groups of 13 newborn calves were studied. All animals were given milk replacement and beta 1.3/1.6 D-glucan was added to the milk replacement for the second group.

In the case of `CC(C)(C)NCC(O)c1ccc(O)c(CO)c1` (racemic) [salbutamol], in the data set with barnacle naupii, the LD50 result is “approximately 1.8 μg/ml”. The “adrenergic beta-2 receptor population on adipocytes” value in data set [1] (one and two weeks continuous s.c. administration by Alza osmotic pumps) was “down-regulated”.
Consider `CC(CCc1ccc(O)cc1)NCC(O)c1ccc(O)cc1` (stereo not drawn) [ractopamine], for which the stress entry in the data set with mice (grouped mice in unfamiliar cage) is “increased the stress”. Besides, in the data set with mice (mice given a sub-lethal dose of physostigmine), the mortality result is listed as “increased mortality”.
beta 1.3/1.6 D-glucan [Agrastim®]: the “stress and stress-induced mortality in ractopamine-treated animals” value in the data set on mice (mice pretreated orally daily for five days, survivors counted 30 min after placing in test-cage, 60 min after ractopamine) was “significantly decreased stress and stress-induced mortality”. For the same molecule, the “effect on salbutamol-induced down-regulation of adrenergic beta-2 receptors” value in data set [1] (glucan given one week before pump implantation and continuously thereafter) is given as “decreased or inhibited”. For the same molecule, the survival of calves with newborn calves (8 weeks treatment in milk replacement, control 7 out of 13) is 12 out of 13. Besides, in the data set on newborn calves (13 calves born, 500 mg day 1, 250 mg/day day 2-56 in milk replacement, farm with high calf mortality), the “Calves Weaned” value is 12.
In turn, `CNC(=O)Oc1ccc2c(c1)[C@]1(C)CCN(C)[C@@H]1N2C` [physostigmine] gave a lethality with mice (stressed grouped mice (n=10), 1.0 mg/kg s.c.) of roughly 100%.
